What is called IC50 is the concentration that gives 50% inhibition. Read a low IC50 as inhibition by little substance.

Results on one compound are retold here after paper PMC10792649 (Current Research in Microbial Sciences, 2023).

The target in the experiment is OROV endonuclease (N-terminal endonuclease domain of OROV RNA-polymerase) (Oropouche virus, UniProt A0A0B5CUJ1). The experiment can be described thus: fluorescence assay, cleavage of labelled DNA FAM-TCTCTAGCAGTGGCGCC-TAM. Type of experiment: biochemical.

Compound `COc1cc2[nH]c3c(OC)c(OC)ccc3c(=O)c2c(OC)c1OC` [FAC21, 1,2,3,5,6-Pentamethoxy-9-(10H)-acridinone] yielded an IC50 of 1400 ± 300 nM.
